Assay results reported in PMC5843628, “Phosphorylation of conserved phosphoinositide binding pocket regulates sorting nexin membrane targeting” (Nature Communications, 2018).

Target: full length human SNX3 (sorting nexin 3) (Homo sapiens, UniProt O60493)
Experiment: NMR chemical shift perturbation titration, […]-labelled protein
Format: binding

Chain of full length human SNX3 (sorting nexin 3) (O60493 whole entry): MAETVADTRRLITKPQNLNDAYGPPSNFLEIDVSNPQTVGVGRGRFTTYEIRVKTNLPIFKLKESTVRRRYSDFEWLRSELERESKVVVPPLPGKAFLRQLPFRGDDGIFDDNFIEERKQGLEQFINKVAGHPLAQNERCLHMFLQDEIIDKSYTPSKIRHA

Structure (SMILES) | Kd [µM]
CCCC(=O)OC[C@H](COP(=O)(O)O[C@@H]1[C@H](O)[C@H](OP(=O)(O)O)[C@@H](O)[C@H](O)[C@H]1O)OC(=O)CCC [c4-PI3P] | 159 ± 36.1
O=P(O)(O)O[C@@H]1[C@H](O)[C@H](OP(=O)(O)O)[C@@H](O)[C@H](O)[C@H]1O [Ins(1,3)P2] | 170 ± 34.1
